Reference: patent publication US20210170035A1, “METHOD OF TREATING CANCER BY TARGETING MYELOID-DERIVED SUPPRESSOR CELLS” (priority 2016, published 2021)
Like-named read-outs stand apart in the source and are kept apart here.

Key:
human MDSCs = assay: IL-10 production by in vitro induced human MDSCs; assay type: cell-based; details: cultured with drugs for 2 days
Procedure: Human PBMCs from healthy donor were isolated by density gradient centrifugation following standard procedure: […]
Blood was dilute blood with PBS (1:2 dilutions). 15 ml of Ficoll was transferred to a 50 ml tube. 35 ml of diluted blood was carefully placed over the Ficoll medium. The tube was centrifuged at 400 g for 30 min, at 24° C. without brake. After the centrifuge stoped, the tube was carefully removed from the centrifuge while not disturbing the layering. The PBMCs were carefully remove from the tube and transferred to a new 50 mL conical tube. Isolated PBMCs were washed with PBS and centrifuged at 300 g for 10 min. The supernatant was decanted. The pellet was washed once again in PBS and centrifuged at 200 g for 15 min. The isolated PBMCs were counted with the hemocytometer.
Isolated PBMCs were further purified by adhesion in serum free medium for 4 hours at 37° C. at a density of 3×10^6 cell/ml. After removing the suspension cells, adhered PBMCs were cultured in completed RPMI-1640 supplied with 10 ng/ml of IL-6 and GM-CSF for 7 days. Human MDSCs were then sorted by flow as CD33+ cells. Normal human macrophages were differentiated by co-culture PBMCs with completed RPMI-1640 medium for 7 days.
Human MDSCs were cultured with selected drugs for 2 days. The IL-10 production by MDSCs was measured and plotted vs drug concentrations.

TAMs/MDSCs [1] = assay: Nitric oxide assay (Greiss reagent) after in vitro TAMs/MDSCs screening; assay type: cell-based, mouse
Procedure: (§1) 10 million 4T1 cells in 300 μL PBS were injected into the peritoneal cavity. Peritoneal ascites were collected between day 7 and day 10 by peritoneal lavage. […] Cells were counted and ready for flow cytometry staining and in vitro screening.
(§2) Different concentrations of screening drugs listed in Table 2 were dissolved in the same medium and were added to each well containing 0.5 millions of cells in 300 μL medium. Wells containing 0.5 million cells in 300 μL medium without addition of drugs were kept as untreated control. Three extra wells were charged with 300 μL medium without cells and drugs to be kept as background control. […] At the end of incubation, supernatant was collected for IL-10 ELISA and nitric oxide assay. Cells were washed twice with 300 μL PBS, and were then ready for the arginase assay.
Nitric oxide production was measured with Greiss reagent as reported in Je-In Youn, Srinivas Nagaraj, Michelle Collazo, and Dmitry I. Gabrilovich, Subsets of Myeloid-Derived Suppressor Cells in Tumor Bearing Mice′, J Immunol. […] Briefly, after in vitro incubation of TAMs/MDSCs with different drugs, 50 μL of supernatant from each well was transferred into a 96-well plat bottom clear plate. 20 μL of Greiss reagent and 30 μL of DI water were added to each well with 50 μL of supernatant. The reaction solution was kept in the dark at room temperature for 30 min prior to a plate reader measurement. The absorbance at 548 nm is correlated to concentration of nitric oxide produced by TAMs/MDSCs. Results are shown in FIG. 9, FIG. 10, FIG. 11 and FIG. 14.

TAMs/MDSCs [2] = assay: Arginase assay after in vitro TAMs/MDSCs screening; assay type: cell-based, mouse
Procedure: as §1, §2
Briefly, after in vitro incubation of isolated TAMs/MDSCs with different drugs in 96 well plates, cells were washed twice with 300 μL PBS. […] Subsequently, 50 μL of the lysate solutions were transferred to a new V-shape 96 well plate. 50 μL of arginase activation solution (10 mM MnCl2/50 mM Tris.Cl (pH 7.5)) were added into the cell lysate. The enzyme was activated by heating for 10 min at 56° C. Arginine hydrolysis was conducted by incubating 25 μL of the activated solution with 25 μL of arginase substrate solution (0.5 M L-arginine (pH 9.7)) at 37° C. for 60 min with mild shaking. After cooling to room temperature, 10 μL of the reaction solution was then diluted into 90 μL of PBS. 10 μL of this diluted solution was transferred to a 96 well flat bottom clear plate. 200 μL of urea reagents were added to each well. After incubation in the dark at room temperature for 10 min, the urea concentration was measured at 520 nm by plate reader.

TAMs/MDSCs [3] = assay: IL-10 ELISA assay after in vitro TAMs/MDSCs screening; assay type: cell-based, mouse; details: co-culture with drug; absorbance at 492 nm
Procedure: as §1
Cells isolated from the peritoneal model were re-suspended in completed RPMI 1640 medium supplemented with 10 ng/mL mouse GM-CSF and seeded into 96 well plates. Different concentrations of screening drugs listed in Table 2 were dissolved in the same medium and were added to each well containing 0.5 millions of cells in 300 μL medium. Wells containing 0.5 million cells in 300 μL medium without addition of drugs were kept as untreated control. Three extra wells were charged with 300 μL medium without cells and drugs to be kept as background control. Cells were then incubated at 37° C. in a humidified 95% air 5% CO2 atmosphere for 24 hours to 48 hours. At the end of incubation, supernatant was collected for IL-10 ELISA and nitric oxide assay. Cells were washed twice with 300 μL PBS, and were then ready for the arginase assay.
IL-10 production by TAMs/MDSCs after in vitro incubation with different compounds was determined by ELISA assay following the protocol provided with the Mouse IL-10 DuoSet ELISA by R&D Systems. Briefly, a high affinity 96-well plate was coated with 100 μL of diluted capture antibody per well with the working concentration of 4 μg/mL in PBS without carrier protein. The plate was sealed, and incubated overnight at room temperature. Each well was aspirated, and washed three times with 400 μL of wash buffer (0.05% Tween®20 in PBS, pH 7.2-7.4) using a squirt bottle. After the last wash, remaining wash buffer was removed by inverting the plate and blotting it against clean paper towels. The plates were blocked by adding 300 μL of reagent diluent (1% BSA in PBS, pH 7.2-7.4) to each well, and incubated at room temperature for 1 hour. Aspiration/wash was repeated three times in the same manner as previously described. The plates were ready for sample addition. 100 μL of sample supernatant from TAMs/MDSCs in vitro screening were added to each well. The plate was covered with an adhesive strip and incubated for 2 hours at room temperature. The previously mentioned aspiration/wash procedure was repeated three times. 100 μL of the detection antibody with the concentration of 300 ng/mL in reagent diluent was added to each well. The plate was covered with a new adhesive strip and incubated for 2 hours at room temperature. The previously mentioned aspiration/wash procedure was repeated three times. 100 μL of working dilution of streptavidin-HRP (1 to 40 dilution in reagent dilute) was added to each well. The plate was covered and incubated for 20 minutes at room temperature in dark. The previously mentioned aspiration/wash procedure was repeated three times. 200 μL of substrate solution (one bag of silver and golden tablets of OPD in 20 mL of DI water) was added to each well. The plate was incubated for 20 minutes at room temperature in dark. 50 μL of stop solution (3M HCl) was added to each well. The plate was gently tapped to ensure thorough mixing. The IL-10 concentration was proportional to the optical density determined by a microplate reader at 492 nm.

[4] = test system: F4/80+CD86+ : F4/80+CD206+ macrophages; assay: Ratio of M1 to M2 macrophages in 4T1 solid tumor; assay type: in vivo, balb/c mice; details: tumor digestion at end of therapeutic study
Procedure: The ratio of M1 to M2 macrophages (F4/80+CD86+: F4/80+CD206+) was tested in groups of untreated control, FA-TLR7 agonist, FA-PI3K inhibitor, FA-Tubulysin and combination as well as competition groups.
As described in the previous methods part, after tumor digestion at the end of therapeutic study, isolated cells were stained by F4/80 macrophage marker and M1 (CD86), M2 (CD206) markers. Macrophages in a tumor environment have been considered as a mainly M2 macrophage function, which can support tumor growth and suppress the immune response. On the other hand, M1 macrophages have been considered to be able to eliminate tumor cells and stimulate an anti-cancer immune response. Therefore, to study the M1 to M2 macrophage ratio is very important for targeting FR-β positive TAMs/MDSCs. […] Therefore, it could be concluded that by targeting FR+ TAMs/MDSCs in 4T1 solid tumor, the three classes of FA-conjugated […] are able to convert immunosuppression M2 macrophages environment to an anti-cancer M1 macrophages environment, which would contribute to the slow growth of a tumor.

MDSCs (CD11b+Gr1+) = assay: MDSCs population (CD11b+Gr1+) in 4T1 solid tumor; assay type: in vivo, balb/c mice; details: tumor digestion at end of therapeutic study
Procedure: The MDSCs population (CD11b+Gr1+) was tested in groups of untreated control, FA-TLR7 agonist, FA-PI3K inhibitor, FA-Tubulysin and combination as well as competition groups.
As described in previous methods part, after tumor digestion at the end of therapeutic study, isolated cells were stained by MDSCs markers CD11b+Gr1+, see FIG. 26.

F4/80+ macrophages = assay: Intracellular staining of arginase on F4/80+ macrophages from 4T1 solid tumor; assay type: in vivo, balb/c mice; details: tumor digestion at end of therapeutic study
Procedure: Intracellular arginase staining: Cell surface markers for TAMs/MDSCs were labeled following procedures mentioned previously. 0.1 μL fixable viability dye eFluor® 660 was added together with antibody cocktails. After washing with PBS, cells were fixed with 4% formaldehyde in 500 μL of PBS for 15 min at 4° C. Cells were spun down to remove fixing solution. Cells were washed two times with 500 μL washing buffer containing 0.1 M glycine and 0.05% sodium azide. After being spun down a final time, cells were added 1 mL permeabilization solution containing 0.1 M glycine, 0.05% sodium azide and 0.1% triton-100. Permeabilization was performed at room temperature for 5 min. Permeabilized cells were spun down at 1500 rpm for 1 min, and the cells were washed three times with 1 mL blocking buffer containing 0.05 M glycine, 0.05% sodium azide and 0.2% gelatin. Cells were then re-suspended in 1 mL blocking buffer at 4° C. overnight to block non-specific intracellular binding. Cells were then spun down at 1500 rpm for 1 min to remove the supernatant and another 100 μL blocking buffer containing 1 μL FITC-arginase was added. Cells were kept in the dark at 4° C. overnight. After being spun down at 1500 rpm for 1 min, cells were washed with 1 mL blocking buffer and were then ready for flow cytometry analysis (BD Accuri C6™ flow cytometer). […]

[5] = co-culture with drug, absorbance at 548 nm
[6] = co-culture with drug, absorbance at 520 nm

| Structure (SMILES) | IL-10 production by human MDSCs (human MDSCs) | nitric oxide production by TAMs/MDSCs in vitro (TAMs/MDSCs [1]; [5]) | arginase production by TAMs/MDSCs in vitro (TAMs/MDSCs [2]; [6]) | IL-10 production by TAMs/MDSCs in vitro (TAMs/MDSCs [3]) | further results |
| --- | --- | --- | --- | --- | --- |
| Cn1c(=O)n(-c2ccc(C(C)(C)C#N)cc2)c2c3cc(-c4cnc5ccccc5c4)ccc3ncc21 [BEZ235] | decreasing IL-10 production | efficiently decrease nitric oxide production | efficiently decrease arginase production | efficiently decrease IL-10 production |  |
| Cc1c(CN2CCN(C(=O)[C@H](C)O)CC2)sc2c(N3CCOCC3)nc(-c3cnc(N)nc3)nc12 [GDC-0980] | decreasing IL-10 production | best candidate that can efficiently decrease nitric oxide | best candidate that can efficiently decrease arginase | best candidate that can efficiently decrease IL-10 |  |
| CCCCc1nc2c(N)nc3ccccc3c2n1CC(C)(C)OC(=O)OCCSSCC(NC(=O)CCC(NC(=O)c1ccc(NCc2cnc3nc(N)[nH]c(=O)c3n2)cc1)C(=O)O)C(=O)O (stereo not drawn) [FA-TLR7 agonist] |  |  |  |  | M1 to M2 macrophages ratio vs untreated control [4]: dramatically increased; MDSCs population (CD11b+Gr1+) vs untreated control (MDSCs (CD11b+Gr1+)): dramatically decreased MDSCs population; anti-cancer effect on co-injection of 200 times more competitor (FA-PEG-NH2) (4T1 solid tumor; competition group, same schedule): can be competed; tumor growth, therapeutic study (4T1 solid tumor; i.v. 5 days per week for 2 weeks from day 6, 10 nmol FA-TLR7 agonist, 10 nmol FA-PI3K inhibitor, 30 nmol FA-tubulysin): tumor growth was slowed down; tumor growth, dose study (4T1 solid tumor; i.v. 5 days per week for 2 weeks from day 6, especially in groups of 5 nmol, 10 nmol and 20 nmol): tumor growth was slowed down; arginase+F4/80+ cell population in live cells vs untreated control (F4/80+ macrophages): dramatically decreased |
| CO[C@H]1C[C@@H]2CC[C@@H](C)[C@@](O)(O2)C(=O)C(=O)N2CCCC[C@H]2C(=O)O[C@H]([C@H](C)C[C@@H]2CC[C@@H](OCCO)[C@H](OC)C2)CC(=O)[C@H](C)/C=C(\C)[C@@H](O)[C@@H](OC)C(=O)[C@H](C)C[C@H](C)/C=C/C=C/C=C/1C [everolimus] |  | efficiently decrease nitric oxide production |  |  |  |
| CC[C@]1(O)C[C@@H]2CN(CCc3c([nH]c4ccccc34)[C@@](C(=O)OC)(c3cc4c(cc3OC)N(C)[C@H]3[C@@](O)(C(=O)OC)[C@H](OC(C)=O)[C@]5(CC)C=CCN6CC[C@]43[C@@H]65)C2)C1 [vinblastine] | decreasing IL-10 production |  |  |  |  |
| CN(Cc1cnc2nc(N)nc(N)c2n1)c1ccc(C(=O)N[C@@H](CCC(=O)O)C(=O)O)cc1 [methotrexate] |  | efficiently decrease nitric oxide production |  |  |  |
| CCCCNc1nc(N)c2[nH]c(=O)n(Cc3ccc(C(=O)NCC(=O)NCCCNCCCCNCCCN)cc3)c2n1 [CL307] |  |  | efficiently decrease arginase production |  |  |
| Nc1cccc2c1CN(C1CCC(=O)NC1=O)C2=O (stereo not drawn) [lenalidomide] |  |  |  | efficiently decrease IL-10 production |  |
| CC[C@H](C)[C@H](NC(=O)[C@H]1CCCCN1C)C(=O)N(COC(=O)CC(C)C)[C@H](C[C@@H](OC(C)=O)c1nc(C(=O)N[C@@H](Cc2ccc(C)cc2)C[C@H](C)C(=O)O)cs1)C(C)C [tubulysin] | decreasing IL-10 production |  |  | efficiently decrease IL-10 production | nitric oxide production by TAMs/MDSCs in vitro (TAMs/MDSCs [1]): efficiently decrease nitric oxide production; arginase production by TAMs/MDSCs in vitro (TAMs/MDSCs [2]): efficiently decrease arginase production |
| NC(=O)c1cnc(NCCc2ccc(O)c(Cl)c2)nc1NCc1ccccc1 [AS1517499] |  | efficiently decrease nitric oxide production | efficiently decrease arginase production | efficiently decrease IL-10 production |  |
| Cc1ccc(-n2nc(C(C)(C)C)cc2NC(=O)Nc2ccc(OCCN3CCOCC3)c3ccccc23)cc1 [BIRB796] |  | efficiently decrease nitric oxide production | efficiently decrease arginase production | efficiently decrease IL-10 production |  |
| CC1CCN=C(N)S1 (stereo not drawn) [AMT] |  | efficiently decrease nitric oxide production |  |  |  |
